From patent publication US7947741B2, “Use and administration of bacterial efflux pump inhibitors” (Mpex Pharmaceuticals, Inc., priority 2004, dated 2011)
Values after ≈ are worked out from the molar mass of the structure shown.

Legend:
[1] = test system: P. aeruginosa PAM1020 (wt, basal level of MexAB-OprM); assay: Levofloxacin potentiation checkerboard assay (broth microdilution); type: cell-based, Pseudomonas aeruginosa; details: PAM1020; for MIC: Pseudomonas aeruginosa, inhibitor alone, read-out: MIC* (MIC for the efflux pump inhibitor)
Method: (§1) Stock solutions were further diluted, according to the needs of a particular assay, in Mueller Hinton Broth (MHB). Stock solution was stored at −80° C.
(§2) The checkerboard assay was performed in microtiter plates. […] The result of these manipulations is that each well of the microtiter plate contains a unique combination of concentrations of the two agents. The assay was performed in MHB with a final bacterial inoculum of 5×10^5 CFU/ml (from an early-log phase culture). Microtiter plates were incubated during 20 h at 35° C. and were read using a microtiterplate reader (Molecular Devices) at 650 nm as well as visual observation using a microtiter plate reading mirror.
(§3) The test organisms used was PAM1020, which is a wild type strain of P. aeruginosa expressing the basal level of MexAB-OprM, as well as PAM1723, PAM1738, and PAM1753, overexpressing the MexAB-OprM, MexCD-OprJ, and MexEF-OprN pump, respectively.

[2] = test system: P. aeruginosa PAM1753 (nfxC, overexpressing MexEF-OprN); assay: as above; type: cell-based, Pseudomonas aeruginosa; details: for Levofloxacin MIC in the presence of inhibitor: PAM1753; for MIC: Pseudomonas aeruginosa, read-out: MIC* (MIC for the efflux pump inhibitor)
Method: as §1, §2, §3

[3] = test system: P. aeruginosa PAM1723 (nalB, overexpressing MexAB-OprM); assay: microbe, parasite or virus in culture; type: cell-based, Pseudomonas aeruginosa; details: for Levofloxacin MIC in the presence of inhibitor: PAM1723; for MIC: Pseudomonas aeruginosa, read-out: MIC* (MIC for the efflux pump inhibitor), PAM1723, inhibitor alone
Method: as §1, §2, §3
Efflux pump inhibitory activity of several commercially available diamidine analogs was evaluated using the checkerboard assay of Example 1 against the strain of P. aeruginosa overexpressing the MexAB-OprM efflux pump.

[4] = test system: P. aeruginosa PAM1738 (nfxB, overexpressing MexCD-OprJ); assay: microbe, parasite or virus in culture; type: cell-based, Pseudomonas aeruginosa; details: for Levofloxacin MIC in the presence of inhibitor: PAM1738; for MIC: Pseudomonas aeruginosa, read-out: MIC* (MIC for the efflux pump inhibitor)
Method: as §1, §2, §3

[5] = test system: P. aeruginosa PAM1626 (lacks all the three efflux pumps); assay: microbe, parasite or virus in culture; type: cell-based, Pseudomonas aeruginosa; details: for Levofloxacin MIC in the presence of inhibitor: PAM1626; for MIC: Pseudomonas aeruginosa, read-out: MIC* (MIC for the efflux pump inhibitor)
[6] = biological target: MexAB-OprM-mediated efflux of Leu-Nap, PAM1723 cells (Pseudomonas aeruginosa, UniProt P52002); assay: Leu-Nap accumulation assay; type: cell-based; details: Leu-Nap 100 μg/ml
MexAB-OprM-mediated efflux of Leu-Nap, PAM1723 cells, sequence (Q51487 18-485): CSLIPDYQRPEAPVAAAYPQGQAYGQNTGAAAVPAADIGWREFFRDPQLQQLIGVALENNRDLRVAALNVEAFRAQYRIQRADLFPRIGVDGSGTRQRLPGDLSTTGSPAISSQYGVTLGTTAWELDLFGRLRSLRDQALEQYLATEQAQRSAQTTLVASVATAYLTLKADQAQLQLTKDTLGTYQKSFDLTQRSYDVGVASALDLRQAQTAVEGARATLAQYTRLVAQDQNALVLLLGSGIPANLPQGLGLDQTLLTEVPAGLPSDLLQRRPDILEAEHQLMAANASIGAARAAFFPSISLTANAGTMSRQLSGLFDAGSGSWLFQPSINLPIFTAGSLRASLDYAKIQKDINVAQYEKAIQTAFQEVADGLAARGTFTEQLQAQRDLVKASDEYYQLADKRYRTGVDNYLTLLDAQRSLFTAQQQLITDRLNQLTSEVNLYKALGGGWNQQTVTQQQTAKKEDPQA
MexAB-OprM-mediated efflux of Leu-Nap, PAM1723 cells, sequence (P52002 whole entry): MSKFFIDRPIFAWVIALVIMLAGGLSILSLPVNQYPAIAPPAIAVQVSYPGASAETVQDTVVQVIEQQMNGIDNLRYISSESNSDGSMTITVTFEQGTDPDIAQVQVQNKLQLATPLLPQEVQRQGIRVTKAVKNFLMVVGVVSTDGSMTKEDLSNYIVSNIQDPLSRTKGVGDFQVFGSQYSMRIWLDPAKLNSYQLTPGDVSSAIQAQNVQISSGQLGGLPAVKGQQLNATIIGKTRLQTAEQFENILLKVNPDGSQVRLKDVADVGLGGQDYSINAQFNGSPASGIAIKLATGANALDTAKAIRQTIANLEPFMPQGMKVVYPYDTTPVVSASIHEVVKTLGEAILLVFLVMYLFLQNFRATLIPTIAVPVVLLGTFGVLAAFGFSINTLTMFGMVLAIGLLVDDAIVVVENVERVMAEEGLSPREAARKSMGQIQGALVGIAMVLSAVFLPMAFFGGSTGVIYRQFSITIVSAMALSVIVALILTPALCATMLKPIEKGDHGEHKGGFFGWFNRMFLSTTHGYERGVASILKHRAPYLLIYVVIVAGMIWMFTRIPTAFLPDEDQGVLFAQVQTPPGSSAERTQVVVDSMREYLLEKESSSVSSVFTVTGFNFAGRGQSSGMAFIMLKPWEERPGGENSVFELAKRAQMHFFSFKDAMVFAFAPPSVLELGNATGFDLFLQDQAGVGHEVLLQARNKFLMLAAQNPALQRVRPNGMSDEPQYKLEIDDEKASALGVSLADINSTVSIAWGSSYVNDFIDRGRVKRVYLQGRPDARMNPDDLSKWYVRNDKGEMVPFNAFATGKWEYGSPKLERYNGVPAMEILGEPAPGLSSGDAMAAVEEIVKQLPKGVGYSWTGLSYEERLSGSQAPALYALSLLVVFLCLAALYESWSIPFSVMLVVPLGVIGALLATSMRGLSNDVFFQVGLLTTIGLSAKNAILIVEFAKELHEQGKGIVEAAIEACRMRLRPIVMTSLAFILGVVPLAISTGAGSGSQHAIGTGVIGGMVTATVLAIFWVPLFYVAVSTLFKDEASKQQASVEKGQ
MexAB-OprM-mediated efflux of Leu-Nap, PAM1723 cells, sequence (P52477 24-383, further chain): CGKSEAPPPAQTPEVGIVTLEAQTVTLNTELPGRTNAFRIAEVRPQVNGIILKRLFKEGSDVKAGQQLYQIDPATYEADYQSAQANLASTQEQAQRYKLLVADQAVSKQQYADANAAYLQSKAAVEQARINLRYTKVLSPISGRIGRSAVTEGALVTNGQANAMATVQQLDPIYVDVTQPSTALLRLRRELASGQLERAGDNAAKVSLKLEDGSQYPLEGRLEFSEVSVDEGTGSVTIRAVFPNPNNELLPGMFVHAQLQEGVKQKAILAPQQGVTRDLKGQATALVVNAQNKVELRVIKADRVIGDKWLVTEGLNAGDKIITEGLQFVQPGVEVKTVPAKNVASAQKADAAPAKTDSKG

| Structure (SMILES) | Levofloxacin MIC in the presence of inhibitor ([1]; inhibitor 1.25 μg/ml) [µg/mL] | Levofloxacin MIC in the presence of inhibitor ([1]; inhibitor 2.5 μg/ml) [µg/mL] | Levofloxacin MIC in the presence of inhibitor ([1]; inhibitor 5 μg/ml) [µg/mL] | Levofloxacin MIC in the presence of inhibitor ([1]; inhibitor 10 μg/ml) [µg/mL] | MIC [1] [µg/mL] | Levofloxacin MIC in the presence of inhibitor ([2]; inhibitor 1.25 μg/ml) [µg/mL] | Levofloxacin MIC in the presence of inhibitor ([2]; inhibitor 2.5 μg/ml) [µg/mL] | Levofloxacin MIC in the presence of inhibitor ([2]; inhibitor 5 μg/ml) [µg/mL] | Levofloxacin MIC in the presence of inhibitor ([2]; inhibitor 10 μg/ml) [µg/mL] | MIC [2] [µg/mL] | Levofloxacin MIC in the presence of inhibitor ([3]; inhibitor 1.25 μg/ml) [µg/mL] | Levofloxacin MIC in the presence of inhibitor ([3]; inhibitor 2.5 μg/ml) [µg/mL] | Levofloxacin MIC in the presence of inhibitor ([3]; inhibitor 5 μg/ml) [µg/mL] | Levofloxacin MIC in the presence of inhibitor ([3]; inhibitor 10 μg/ml) [µg/mL] | Levofloxacin MIC in the presence of inhibitor ([3]; inhibitor 20 μg/ml) [µg/mL] | Levofloxacin MIC in the presence of inhibitor ([3]; inhibitor 40 μg/ml) [µg/mL] | MIC [3] [µg/mL] | Levofloxacin MIC in the presence of inhibitor ([4]; inhibitor 1.25 μg/ml) [µg/mL] | Levofloxacin MIC in the presence of inhibitor ([4]; inhibitor 2.5 μg/ml) [µg/mL] | Levofloxacin MIC in the presence of inhibitor ([4]; inhibitor 5 μg/ml) [µg/mL] | also measured |
| --- | --- | --- | --- | --- | --- | --- | --- | --- | --- | --- | --- | --- | --- | --- | --- | --- | --- | --- | --- | --- | --- |
| N=C(N)c1ccc(OCCCOc2ccc(C(=N)N)cc2Br)c(Br)c1 [Dibromopropamidine, dibromopropamidine] | 0.25 | 0.25 | 0.125 | 0.06 | 80 | 2 | 1 | 0.5 | 0.125 | 20 | 2 | 1 | 0.5 | 0.125 | 0.06 | 0.06 | 80 | 0.5 | 0.25 | 0.125 | Levofloxacin MIC in the presence of inhibitor ([1]; inhibitor 20 μg/ml): 0.03 µg/mL; Levofloxacin MIC in the presence of inhibitor ([1]; inhibitor 40 μg/ml): 0.03 µg/mL; Levofloxacin MIC in the presence of inhibitor ([4]; inhibitor 10 μg/ml): 0.06 µg/mL; Levofloxacin MIC in the presence of inhibitor ([4]; inhibitor 20 μg/ml): 0.03 µg/mL; Levofloxacin MIC in the presence of inhibitor ([4]; inhibitor 40 μg/ml): 0.03 µg/mL; MIC [4]: 80 µg/mL; Levofloxacin MIC in the presence of inhibitor ([5]; inhibitor 1.25 μg/ml): 7.5 ng/mL; Levofloxacin MIC in the presence of inhibitor ([5]; inhibitor 2.5 μg/ml): 7 ng/mL; MIC [5]: 5 µg/mL (≈ 10.6 µM); inhibitor concentration at which rate of Leu-Nap uptake in PAM1723 and PAM1626 is the same (complete inhibition of efflux) [6]: 20 µg/mL |
| N=C(N)c1ccc(OCCCCCCOc2ccc(C(=N)N)cc2)cc1 [Hexamidine, hexamidine] | 0.125 | 0.125 | 0.03 | 0.007 | 20 | 2 | 2 | 1 | 0.25 | 20 | 2 | 1 | 1 | 0.125 | 0.015 |  | 40 | 0.5 | 0.5 | 0.25 | Levofloxacin MIC in the presence of inhibitor ([4]; inhibitor 10 μg/ml): 0.06 µg/mL; Levofloxacin MIC in the presence of inhibitor ([4]; inhibitor 20 μg/ml): 0.015 µg/mL; Levofloxacin MIC in the presence of inhibitor ([4]; inhibitor 40 μg/ml): 0.007 µg/mL; MIC [4]: 80 µg/mL; Levofloxacin MIC in the presence of inhibitor ([5]; inhibitor 1.25 μg/ml): 7 ng/mL; MIC [5]: 2.5 µg/mL (≈ 7.05 µM); inhibitor concentration at which rate of Leu-Nap uptake in PAM1723 and PAM1626 is the same (complete inhibition of efflux) [6]: 20 µg/mL |
| N=C(N)c1ccc(/N=N/Nc2ccc(C(=N)N)cc2)cc1 [MP 601206] |  |  |  |  |  |  |  |  |  |  | 2 | 2 | 1 | 1 | 0.5 | 0.06 | 80 |  |  |  |  |
| Cl.Cl.N=C(N)c1cccc(NC(=O)Nc2cccc(C(=N)N)c2)c1 [MP 601319] |  |  |  |  |  |  |  |  |  |  | 2 | 2 | 2 | 2 | 1 | 0.25 | > 80 |  |  |  | Levofloxacin MIC in the presence of inhibitor ([3]; inhibitor 80 μg/ml): 0.125 µg/mL |
